# Measurements from patent publication US10265383B2, “Treatment of radiation injury using ghrelin” (priority 2014, dated 2019).
# Where no end group is shown, it is not given here. The star is where a group is joined. Octanoyl = CCCCCCCC(=O)*
# Legend:
# rat jejunum = assay: Histopathology of jejunum after WBI (H&E, PAS); assay type: in vivo; settings: Day 7 after 10 Gy WBI
# Protocol: (§1) Animal model of whole body irradiation. Rats were exposed to whole body irradiation (WBI) of 10 Gray (Gy) using a Gammacell® 1000 Irradiator (Atomic Energy of Canada Ltd) [radiation source: Cesium-137 (^137Cs)] delivered at a dose rate of about 2.5 GY/min. The animals were sedated with intra-peritoneal pentobarbital (40 mg/kg BW) prior to irradiation. During radiation, the container rotated continuously in front of the radiation source for even exposure. The animals were then returned to their cages, and food and water were provided.
# (§2) Blood and Tissue Collection after WBI. Rats exposed to 10 Gy WBI were treated with 20 nmol/rat human ghrelin once a day for 6 days starting at 24 h after radiation. At the 7th day, rats were euthanized, and blood, liver and the small intestine were removed under sterile conditions. The blood was allowed to clot and following centrifugation, the serum was transferred into pyrogenic free sterile tubes, and stored at −80° C. until further analysis. Liver (0.25 g) was snap-frozen in liquid nitrogen and stored at −80° C. for subsequent bacterial translocation analysis. Small intestine, 10-15 cm of the ileum, was harvested for gut permeability studies, 10 cm of jejunum was collected for histopathology, and the remaining 10 cm jejunal segment each was collected for RNA and protein analyses.
# Histopathology. Jejunal segments were fixed in 1:10 buffered formalin and embedded in paraffin. Tissue blocks were sectioned at a thickness of 5 μm, transferred to glass slides, and stained with hematoxylin and eosin (H&E). The sections were observed under 100× magnification using a Nikon Eclipse Ti inverted microscope equipped with the Nikon Digital Sight Camera (Nikon Inc. Melville, N.Y.). Villus height was determined by measuring the distance from villus-crypt junction to the villus tip and crypt depth was determined by the distance from villus-crypt junction to basal crypt cells using the Nikon software. For each rat, 100 measurements of villus height and crypt depth were obtained from 5 circumferences. Periodic Acid Schiff (PAS) stained sections were used to quantify the number of goblet cells per villus. Three rats in each group were used to calculate the mean.
# serum glucose = assay: Serum glucose level after WBI; assay type: in vivo, rat; settings: Day 7 after 10 Gy WBI; WBI reduced it by 30%
# Protocol: as §1
# as §2, with “Small intestine, 10-15 cm of the ileum, was harvested for gut permeability studies, 10 cm of jejunum was collected for histopathology, and the remaining 10 cm jejunal segment each was collected for RNA and protein analyses.” left out
# Serum glucose and albumin levels. Serum levels of glucose and albumin were determined using Liquid Glucose Hexokinase Reagent Set and Albumin Reagent Set (Pointe Scientific, Inc.) respectively according to manufacturer's instructions.
# [1] = system: intestinal crypt apoptosis; assay: Intestinal TUNEL staining after WBI; assay type: in vivo, rat; settings: jejunum, Day 7 after 10 Gy WBI; vehicle increased by 638% from sham
# Protocol: as §1
# Blood and Tissue Collection after WBI. Rats exposed to 10 Gy WBI were treated with 20 nmol/rat human ghrelin once a day for 6 days starting at 24 h after radiation. At the 7th day, rats were euthanized, and blood, liver and the small intestine were removed under sterile conditions. The blood was allowed to clot and following centrifugation, the serum was transferred into pyrogenic free sterile tubes, and stored at −80° C. until further analysis. […]
# TUNEL staining. The presence of apoptotic cells in the gut sections was assessed at the 7th day following WBI using a terminal deoxynucleotide transferase dUTP nick-end labeling (TUNEL) staining kit (Roche Diagnostics, Indianapolis, Ind.). […] TUNEL-positive cells in crypt were counted in 10 fields/section under a fluorescence microscope (200×), and the number of cells/crypt are shown.
# Bcl-xl = assay: Western blot of jejunal Bcl-xl protein; assay type: in vivo, rat; settings: jejunum, Day 7 after 10 Gy WBI
# Protocol: as §1
# (§3) Blood and Tissue Collection after WBI. Rats exposed to 10 Gy WBI were treated with 20 nmol/rat human ghrelin once a day for 6 days starting at 24 h after radiation. At the 7th day, rats were euthanized, and blood, liver and the small intestine were removed under sterile conditions. […]
# (§4) Western blot analysis. […] After overnight incubation with the primary antibodies at 4° C., the membranes were washed with TBS-T Immunoreactive bands were detected using HRP-linked secondary antibody (Southern Biotech, Birmingham, Ala.) and the Enhanced Chemiluminescence (ECL) Western blot detection kit (Amersham, Piscataway, N.J.). The immunoblots were exposed to X-ray film and analyzed with the NIH Image J analysis system. […]
# Bax = assay: Western blot of jejunal Bax protein; assay type: in vivo, rat; settings: jejunum, Day 7 after 10 Gy WBI; slightly elevated in vehicle
# Protocol: as §1, §3, §4
# pAkt = assay: Western blot of jejunal pAkt expression; assay type: in vivo, rat; settings: jejunum, Day 7 after 10 Gy WBI; versus vehicle
# Protocol: as §1, §3, §4
substance,measurement,setting,value
ghrelin (GSS(Octanoyl)FLSPEHQRVQQRKESKKPPAKLQPR; listed as Homo sapiens) [human ghrelin],intestinal integrity and morphology (H&E),rat jejunum; 6 days treatment starting at 24 h,improved the intestinal integrity and morphology
same,"goblet cell number/villus, increase from Sham","rat jejunum; jejunum PAS stain, vehicle 29%",5%
same,"crypt depth, reduction from Sham","rat jejunum; jejunum, 20 nmol/rat for 6 days from 24 h, vehicle 14%",2.8%
same,"villus length, reduction from Sham","rat jejunum; jejunum, 20 nmol/rat for 6 days from 24 h, vehicle 19%",2.0%
same,serum glucose,serum glucose,restored to near Sham levels
same,"apoptotic (TUNEL positive) cells/crypt, reduction",[1],62%
same,"Bcl-xl protein levels, restored by",Bcl-xl; vehicle 34% reduction,75%
same,"Bcl-xl/Bax ratio, increase from the vehicle",Bcl-xl; vehicle 54% reduction,55%
same,Bax protein,Bax,remain same as sham
same,intestinal pAkt expression,pAkt,further significantly increased
